Here are results for 1 compound from PMC12546632, “The role of cytochrome bc1 inhibitors in future tuberculosis treatment regimens” (Nature Communications, 2025).

This test concerns JNJ-2901- and JNJ-4052-resistant M. tuberculosis ΔcydAB strains (QcrA/QcrB mutants). In kind it is cell-based, Mycobacterium tuberculosis.

Structures are written as SMILES. Where “and” joins values, the source holds several entries; their conditions need not be identical. Identical values can stand only once.

For `NNC(=O)c1ccncc1` [Isoniazid, isoniazid], the “MIC50 fold change from parental strain” value was 1 fold and 0.5 fold.
